The source of these data is patent US12049450B2, “Pyridyloxy-carboxylate derivative and preparation method therefor, herbicidal composition, and use” (Qingdao Kingagroot Chemical Compound Co., Ltd., priority 2018, dated 2024).

Holding throughout (test): Post-emergence test experiment (greenhouse pot, spray at 2-3 leaf stage)
Holding throughout (type): in vivo
Common to all, as to conditions: 1000 g/ha; post-emergence spray at 2-3 leaf stage; assessed after 3 weeks; fresh weight inhibition rate

The subject of one assay is Abutilon theophrasti. An outline of the steps:
(§1)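 Activity graded levels 0-5 by fresh-weight inhibition (level 5 above 85%, level 0 below 5%), assessed 3 weeks after treatment. Plants grown in greenhouse pots were sprayed post-emergence at 2-3 leaves using acetone/tween-80 solutions with methyl oleate synergist (1.5 L/ha).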

In a further assay the test system is Digitaria sanguinalis. An outline of the steps: as §1
The subject of the next assay is Echinochloa crusgalli. An outline of the steps:
as §1

Another assay has as its system Galium spurium. An outline of the steps: as §1
In another assay the test system is Monochoria vaginalis. An outline of the steps: as §1

For `CC(Oc1nc(F)c(Cl)c(N)c1Cl)C(=O)SCc1nccs1` (stereo not drawn) [Compound 156], the “Activity level (growth inhibition rate) Abutilon theophrasti” value in the assay on Abutilon theophrasti is recorded as 5 (Level 5: the growth inhibition rate is greater than 85%). Besides, the “Activity level (growth inhibition rate) Digitaria sanguinalis” value in the assay with Digitaria sanguinalis is reported as 5 (Level 5: the growth inhibition rate is greater than 85%). The “Activity level (growth inhibition rate) Echinochloa crusgalli” value in the assay with Echinochloa crusgalli was 5 (Level 5: the growth inhibition rate is greater than 85%). The “Activity level (growth inhibition rate) Galium spurium” value with Galium spurium was 5 (Level 5: the growth inhibition rate is greater than 85%). In the assay on Monochoria vaginalis, the “Activity level (growth inhibition rate) Monochoria Vaginalis” value was 5 (Level 5: the growth inhibition rate is greater than 85%).

Turning to `Cc1ncc(COC(=O)C(C)Oc2nc(F)c(Cl)c(N)c2Cl)s1` (stereo not drawn) [Compound 157], the “Activity level (growth inhibition rate) Abutilon theophrasti” value with Abutilon theophrasti was 5 (Level 5: the growth inhibition rate is greater than 85%). For the same compound, in the assay with Digitaria sanguinalis, the “Activity level (growth inhibition rate) Digitaria sanguinalis” value is given as 5 (Level 5: the growth inhibition rate is greater than 85%). For the same compound, in the assay on Echinochloa crusgalli, the “Activity level (growth inhibition rate) Echinochloa crusgalli” value is recorded as 5 (Level 5: the growth inhibition rate is greater than 85%). For the same compound, the “Activity level (growth inhibition rate) Galium spurium” value in the assay on Galium spurium is on record as 5 (Level 5: the growth inhibition rate is greater than 85%). Further, the “Activity level (growth inhibition rate) Monochoria Vaginalis” value in the assay with Monochoria vaginalis is 5 (Level 5: the growth inhibition rate is greater than 85%).

Consider `CC(Oc1nc(F)c(Cl)c(N)c1Cl)C(=O)OCc1cscn1` (stereo not drawn) [Compound 158], for which, in the assay with Abutilon theophrasti, the “Activity level (growth inhibition rate) Abutilon theophrasti” value was 5 (Level 5: the growth inhibition rate is greater than 85%). Also, in the assay with Digitaria sanguinalis, the “Activity level (growth inhibition rate) Digitaria sanguinalis” value is given as 5 (Level 5: the growth inhibition rate is greater than 85%). Also, in the assay on Echinochloa crusgalli, the “Activity level (growth inhibition rate) Echinochloa crusgalli” value is listed as 5 (Level 5: the growth inhibition rate is greater than 85%). The “Activity level (growth inhibition rate) Galium spurium” value with Galium spurium is on record as 5 (Level 5: the growth inhibition rate is greater than 85%). In addition, the “Activity level (growth inhibition rate) Monochoria Vaginalis” value in the assay with Monochoria vaginalis is on record as 5 (Level 5: the growth inhibition rate is greater than 85%).

Turning to `CC(Oc1nc(F)c(Cl)c(N)c1Cl)C(=O)SCc1cncs1` (stereo not drawn) [Compound 159], in the assay with Abutilon theophrasti, the “Activity level (growth inhibition rate) Abutilon theophrasti” value was 5 (Level 5: the growth inhibition rate is greater than 85%). Moreover, in the assay on Digitaria sanguinalis, the “Activity level (growth inhibition rate) Digitaria sanguinalis” value is 5 (Level 5: the growth inhibition rate is greater than 85%). Further, in the assay on Echinochloa crusgalli, the “Activity level (growth inhibition rate) Echinochloa crusgalli” value is on record as 5 (Level 5: the growth inhibition rate is greater than 85%). The “Activity level (growth inhibition rate) Galium spurium” value with Galium spurium is 5 (Level 5: the growth inhibition rate is greater than 85%). The “Activity level (growth inhibition rate) Monochoria Vaginalis” value in the assay on Monochoria vaginalis was 5 (Level 5: the growth inhibition rate is greater than 85%).

In the case of `CC(Oc1nc(F)c(Cl)c(N)c1Cl)C(=O)OCc1ccns1` (stereo not drawn) [Compound 160], the “Activity level (growth inhibition rate) Abutilon theophrasti” value with Abutilon theophrasti is reported as 5 (Level 5: the growth inhibition rate is greater than 85%). Further, the “Activity level (growth inhibition rate) Digitaria sanguinalis” value in the assay on Digitaria sanguinalis was 5 (Level 5: the growth inhibition rate is greater than 85%). Also, the “Activity level (growth inhibition rate) Echinochloa crusgalli” value in the assay with Echinochloa crusgalli is recorded as 5 (Level 5: the growth inhibition rate is greater than 85%). For the same compound, the “Activity level (growth inhibition rate) Galium spurium” value with Galium spurium is 5 (Level 5: the growth inhibition rate is greater than 85%). Besides, in the assay with Monochoria vaginalis, the “Activity level (growth inhibition rate) Monochoria Vaginalis” value is reported as 5 (Level 5: the growth inhibition rate is greater than 85%).

For `CC(Oc1nc(F)c(Cl)c(N)c1Cl)C(=O)SCc1ccsn1` (stereo not drawn) [Compound 161], the “Activity level (growth inhibition rate) Abutilon theophrasti” value in the assay with Abutilon theophrasti is on record as 5 (Level 5: the growth inhibition rate is greater than 85%). In the assay with Digitaria sanguinalis, the “Activity level (growth inhibition rate) Digitaria sanguinalis” value was 5 (Level 5: the growth inhibition rate is greater than 85%). For the same compound, the “Activity level (growth inhibition rate) Echinochloa crusgalli” value in the assay with Echinochloa crusgalli is 5 (Level 5: the growth inhibition rate is greater than 85%). For the same compound, in the assay on Galium spurium, the “Activity level (growth inhibition rate) Galium spurium” value is 5 (Level 5: the growth inhibition rate is greater than 85%). In the assay on Monochoria vaginalis, the “Activity level (growth inhibition rate) Monochoria Vaginalis” value is reported as 5 (Level 5: the growth inhibition rate is greater than 85%).

As for `CC(Oc1nc(F)c(Cl)c(N)c1Cl)C(=O)OCCc1cnsc1` (stereo not drawn) [Compound 162], the “Activity level (growth inhibition rate) Abutilon theophrasti” value with Abutilon theophrasti is recorded as 5 (Level 5: the growth inhibition rate is greater than 85%). Besides, the “Activity level (growth inhibition rate) Digitaria sanguinalis” value in the assay with Digitaria sanguinalis is 5 (Level 5: the growth inhibition rate is greater than 85%). Besides, the “Activity level (growth inhibition rate) Echinochloa crusgalli” value with Echinochloa crusgalli is recorded as 5 (Level 5: the growth inhibition rate is greater than 85%). In the assay with Galium spurium, the “Activity level (growth inhibition rate) Galium spurium” value is on record as 5 (Level 5: the growth inhibition rate is greater than 85%). Moreover, the “Activity level (growth inhibition rate) Monochoria Vaginalis” value in the assay with Monochoria vaginalis is on record as 5 (Level 5: the growth inhibition rate is greater than 85%).

Turning to `CC(Oc1nc(F)c(Cl)c(N)c1Cl)C(=O)OCc1nccs1` (stereo not drawn) [Compound 163], in the assay with Abutilon theophrasti, the “Activity level (growth inhibition rate) Abutilon theophrasti” value is reported as 5 (Level 5: the growth inhibition rate is greater than 85%). Moreover, the “Activity level (growth inhibition rate) Digitaria sanguinalis” value with Digitaria sanguinalis is listed as 5 (Level 5: the growth inhibition rate is greater than 85%). Also, the “Activity level (growth inhibition rate) Echinochloa crusgalli” value with Echinochloa crusgalli is given as 5 (Level 5: the growth inhibition rate is greater than 85%). Moreover, the “Activity level (growth inhibition rate) Galium spurium” value with Galium spurium is recorded as 5 (Level 5: the growth inhibition rate is greater than 85%). In addition, the “Activity level (growth inhibition rate) Monochoria Vaginalis” value in the assay with Monochoria vaginalis is on record as 5 (Level 5: the growth inhibition rate is greater than 85%).

Turning to `CC(Oc1nc(F)c(Cl)c(N)c1Cl)C(=O)OCc1nncs1` (stereo not drawn) [Compound 164], the “Activity level (growth inhibition rate) Abutilon theophrasti” value in the assay on Abutilon theophrasti is reported as 5 (Level 5: the growth inhibition rate is greater than 85%). In the assay on Digitaria sanguinalis, the “Activity level (growth inhibition rate) Digitaria sanguinalis” value is 5 (Level 5: the growth inhibition rate is greater than 85%). The “Activity level (growth inhibition rate) Echinochloa crusgalli” value with Echinochloa crusgalli is on record as 5 (Level 5: the growth inhibition rate is greater than 85%). Also, in the assay with Galium spurium, the “Activity level (growth inhibition rate) Galium spurium” value was 5 (Level 5: the growth inhibition rate is greater than 85%). In the assay on Monochoria vaginalis, the “Activity level (growth inhibition rate) Monochoria Vaginalis” value is recorded as 5 (Level 5: the growth inhibition rate is greater than 85%).

For the compound `CC(Oc1nc(F)c(Cl)c(N)c1Cl)C(=O)SCCc1ncsn1` (stereo not drawn) [Compound 165], the “Activity level (growth inhibition rate) Abutilon theophrasti” value in the assay on Abutilon theophrasti is given as 5 (Level 5: the growth inhibition rate is greater than 85%). Moreover, the “Activity level (growth inhibition rate) Digitaria sanguinalis” value in the assay with Digitaria sanguinalis is reported as 5 (Level 5: the growth inhibition rate is greater than 85%). Further, the “Activity level (growth inhibition rate) Echinochloa crusgalli” value with Echinochloa crusgalli is given as 5 (Level 5: the growth inhibition rate is greater than 85%). For the same compound, the “Activity level (growth inhibition rate) Galium spurium” value with Galium spurium is recorded as 5 (Level 5: the growth inhibition rate is greater than 85%). In addition, in the assay on Monochoria vaginalis, the “Activity level (growth inhibition rate) Monochoria Vaginalis” value is listed as 5 (Level 5: the growth inhibition rate is greater than 85%).

As for `CC(Oc1nc(F)c(Cl)c(N)c1Cl)C(=O)OCc1cnns1` (stereo not drawn) [Compound 166], the “Activity level (growth inhibition rate) Abutilon theophrasti” value in the assay with Abutilon theophrasti is 5 (Level 5: the growth inhibition rate is greater than 85%). The “Activity level (growth inhibition rate) Digitaria sanguinalis” value with Digitaria sanguinalis is 5 (Level 5: the growth inhibition rate is greater than 85%). Besides, the “Activity level (growth inhibition rate) Echinochloa crusgalli” value in the assay on Echinochloa crusgalli is 5 (Level 5: the growth inhibition rate is greater than 85%). Also, the “Activity level (growth inhibition rate) Galium spurium” value in the assay on Galium spurium was 5 (Level 5: the growth inhibition rate is greater than 85%). For the same compound, the “Activity level (growth inhibition rate) Monochoria Vaginalis” value in the assay with Monochoria vaginalis is given as 5 (Level 5: the growth inhibition rate is greater than 85%).

On to `CC(Oc1nc(F)c(Cl)c(N)c1Cl)C(=O)OCc1ncns1` (stereo not drawn) [Compound 167], for which the “Activity level (growth inhibition rate) Abutilon theophrasti” value in the assay with Abutilon theophrasti is listed as 5 (Level 5: the growth inhibition rate is greater than 85%). Moreover, in the assay on Digitaria sanguinalis, the “Activity level (growth inhibition rate) Digitaria sanguinalis” value was 5 (Level 5: the growth inhibition rate is greater than 85%). For the same compound, in the assay with Echinochloa crusgalli, the “Activity level (growth inhibition rate) Echinochloa crusgalli” value is listed as 5 (Level 5: the growth inhibition rate is greater than 85%). In addition, the “Activity level (growth inhibition rate) Galium spurium” value in the assay on Galium spurium is reported as 5 (Level 5: the growth inhibition rate is greater than 85%). Besides, in the assay on Monochoria vaginalis, the “Activity level (growth inhibition rate) Monochoria Vaginalis” value is 5 (Level 5: the growth inhibition rate is greater than 85%).

As for `CC(Oc1nc(F)c(Cl)c(N)c1Cl)C(=O)SCc1csnn1` (stereo not drawn) [Compound 168], the “Activity level (growth inhibition rate) Abutilon theophrasti” value in the assay with Abutilon theophrasti is 5 (Level 5: the growth inhibition rate is greater than 85%). For the same compound, the “Activity level (growth inhibition rate) Digitaria sanguinalis” value in the assay with Digitaria sanguinalis is listed as 5 (Level 5: the growth inhibition rate is greater than 85%). In addition, in the assay on Echinochloa crusgalli, the “Activity level (growth inhibition rate) Echinochloa crusgalli” value was 5 (Level 5: the growth inhibition rate is greater than 85%). Further, the “Activity level (growth inhibition rate) Galium spurium” value in the assay on Galium spurium was 5 (Level 5: the growth inhibition rate is greater than 85%). Further, in the assay on Monochoria vaginalis, the “Activity level (growth inhibition rate) Monochoria Vaginalis” value is recorded as 5 (Level 5: the growth inhibition rate is greater than 85%).

As to `CC(Oc1nc(F)c(Cl)c(N)c1Cl)C(=O)OCC1C=C2C=CC=CC2N1` (stereo not drawn) [Compound 169], in the assay with Abutilon theophrasti, the “Activity level (growth inhibition rate) Abutilon theophrasti” value is reported as 5 (Level 5: the growth inhibition rate is greater than 85%). For the same compound, the “Activity level (growth inhibition rate) Digitaria sanguinalis” value with Digitaria sanguinalis is on record as 5 (Level 5: the growth inhibition rate is greater than 85%). Further, in the assay on Echinochloa crusgalli, the “Activity level (growth inhibition rate) Echinochloa crusgalli” value is reported as 5 (Level 5: the growth inhibition rate is greater than 85%). In the assay with Galium spurium, the “Activity level (growth inhibition rate) Galium spurium” value is recorded as 5 (Level 5: the growth inhibition rate is greater than 85%). The “Activity level (growth inhibition rate) Monochoria Vaginalis” value in the assay with Monochoria vaginalis is recorded as 5 (Level 5: the growth inhibition rate is greater than 85%).

As for `CC(Oc1nc(F)c(Cl)c(N)c1Cl)C(=O)SCc1nc2ccccc2[nH]1` (stereo not drawn) [Compound 170], the “Activity level (growth inhibition rate) Abutilon theophrasti” value with Abutilon theophrasti is recorded as 5 (Level 5: the growth inhibition rate is greater than 85%). Further, in the assay with Digitaria sanguinalis, the “Activity level (growth inhibition rate) Digitaria sanguinalis” value is 5 (Level 5: the growth inhibition rate is greater than 85%). In addition, in the assay on Echinochloa crusgalli, the “Activity level (growth inhibition rate) Echinochloa crusgalli” value was 5 (Level 5: the growth inhibition rate is greater than 85%). Also, in the assay on Galium spurium, the “Activity level (growth inhibition rate) Galium spurium” value was 5 (Level 5: the growth inhibition rate is greater than 85%). Besides, the “Activity level (growth inhibition rate) Monochoria Vaginalis” value with Monochoria vaginalis was 5 (Level 5: the growth inhibition rate is greater than 85%).
